US20060194782A1, “Pharmacologically active imidazo[4,5-c] pyridines” (Altana Pharma AG, priority 2003, published 2006)

How the values were obtained:
[1] = system: pentagastrin-stimulated acid secretion of the perfused rat stomach; experiment: Pentagastrin-stimulated acid secretion of the perfused rat stomach after intraduodenal administration; type: in vivo; conditions: anesthetized CD rat, dose 1.0 μmol/kg i.d.
Source text: Testing of the Secretion on the Perfused Rat Stomach
In Table A which follows, the influence of the compounds of the formula 1 according to aspect 3 of the invention on the pentagastrin-stimulated acid secretion of the perfused rat stomach after intraduodenal
The abdomen of anesthetized rats(CD rat, female, 200-250 g; 1.5 g/kg i.m. urethane) was opened after tracheotomy by a median upper abdominal incision and a PVC catheter was fixed transorally in the esophagus and another via the pylorus such that the ends of the tubes just projected into the gastric lumen. The catheter leading from the pylorus led outward into the right abdominal wall through a side opening.
After thorough rinsing (about 50-100 ml), warm (37° C.) physiological NaCl solution was continuously passed through the stomach (0.5 ml/min, pH 6.8-6.9; Braun-Unita I). The pH (pH meter 632, glass electrode EA 147; φ=5 mm, Metrohm) and, by titration with a freshly prepared 0.01 N NaOH solution to pH 7 (Dosimat 665 Metrohm), the secreted HCl were determined in the effluent in each case collected at an interval of 15 minutes.
The gastric secretion was stimulated by continuous infusion of 1 μg/kg (=1.65 ml/h) of i.v. pentagastrin (left femoral vein) about 30 min after the end of the operation (i.e. after determination of 2 preliminary fractions). The substances to be tested were administered intraduodenally in a 2.5 ml/kg liquid volume 60 min after the start of the continuous pentagastrin infusion.
The body temperature of the animals was kept at a constant 37.8-38° C. by infrared irradiation and heat pads (automatic, stepless control by means of a rectal temperature sensor).

Row | Structure (SMILES) | melting point | Inhibition of acid secretion [1]
1 | CCc1cccc(C)c1NCc1nccc2c1nc(C)n2C [Example 1, (1,2-Dimethyl-1H-imidazo[4,5-c]pyridin-4-ylmethyl)-(2-ethyl-6-methyl-phenyl)-amine] | 141 to 142 °C | –
2 | CCc1cccc(C)c1CNc1nc(C(=O)N(C)C)cc2c1nc(C)n2C [Example 2, 4-(2-Ethyl-6-methyl-benzylamino)-1,2-dimethyl-1H-imidazo[4,5-c]pyridine-6-carboxylic Acid Dimethylamide] | 204 to 206 °C | >30%
3 | CCc1cccc(C)c1CNc1nc(C(N)=O)cc2c1nc(C)n2C [Example 3, 4-(2-Ethyl-6-methyl-benzylamino)-1,2-dimethyl-1H-imidazo[4,5-c]pyridine-6-carboxylic Acid Amide] | 264 to 266 °C | >30%
4 | CCc1cccc(C)c1CNc1nc(C(=O)NC)cc2c1nc(C)n2C [Example 4, 4-(2-Ethyl-6-methyl-benzylamino)-1,2-dimethyl-1H-imidazo[4,5-c]pyridine-6-carboxylic Acid Methylamide] | 157 to 160 °C | >30%
5 | CCc1cccc(C)c1CNc1nc(C(=O)NCCO)cc2c1nc(C)n2C [Example 5, 4-(2-Ethyl-6-methyl-benzylamino)-1,2-dimethyl-1H-imidazo[4,5-c]pyridine-6-carboxylic Acid (2-Hydroxy-ethyl)-amide] | 208 to 209 °C | –
6 | Cc1nc2c(OCc3ccccc3)nccc2n1C [Example 7, 4-Benzyloxy-1,2-dimethyl-1H-imidazo[4,5-c]pyridine] | 115 to 116 °C | –
7 | Cc1nc2c(OCc3ccccc3Cl)nccc2n1C [Example 8, 4-(2-Chloro-benzyloxy)-1,2-dimethyl-1H-imidazo[4,5-c]pyridine] | 180 to 181 °C | –
8 | Cc1nc2c(OC3CCc4ccccc43)nccc2n1C (centres unmarked) [Example 10, 4-(Indan-1-yloxy)-1,2-dimethyl-1H-imidazo[4,5-c]pyridine] | 164 to 165 °C | –
9 | CCOC(=O)c1cc2c(nc(C)n2C)c(NCc2c(C)cccc2CC)n1 [Example 12, 4-(2-Ethyl-6-methyl-benzylamino)-1,2-dimethyl-1H-imidazo[4,5-c]pyridine-6-carboxylic Acid Ethyl Ester] | > 111 °C (dec.) | –
10 | CCc1cccc(C)c1CNc1nc(C(=O)O)cc2c1nc(C)n2C [Example 13, 4-(2-Ethyl-6-methyl-benzylamino)-1,2-dimethyl-1H-imidazo[4,5-c]pyridine-6-carboxylic Acid] | 233 to 236 °C | –
11 | CCc1cccc(C)c1CNc1nc(OCCOC)cc2c1nc(C)n2C [Example 14, (2-Ethyl-6-methyl-benzyl)-[6-(2-methoxy-ethoxy)-1,2-dimethyl-1H-imidazo[4,5-c]pyridin-4-yl]-amine] | 105 °C | –
12 | CCc1cccc(C)c1CNc1nc(OC)cc2c1nc(C)n2C [Example 15, (2-Ethyl-6-methyl-benzyl)-(6-methoxy-1,2-dimethyl-1H-imidazo[4,5-c]pyridin-4-yl)-amine] | 106 to 107 °C | –
13 | CCc1cccc(C)c1CNc1nc(C(=O)N(C)C)cc2[nH]c(C)nc12 [Example 16, 4-(2-Ethyl-6-methyl-benzylamino)-2-methyl-1H-imidazo[4,5-c]pyridine-6-carboxylic Acid Dimethyl-amide] | 207 to 208 °C | >30%
